Experimental data as given in patent US4288590A, “7 -[Dα-(4-Hydroxy-1,5-naphthyridine-3-carboxamido)-α-arylacetam ido]-3-(N,N-dimethyl-aminomethylpyridinium) methyl-3-cephem-4-carboxylates” (Bristol-Myers Company, priority 1980, dated 1981).
Structures can show the parent of a compound that is named as a salt.

Legend:
[1] = system: K. pneumoniae (Gn-Ia); experiment: In vitro activity, MIC of strain group (Table 2); format: cell-based; settings: Klebsiella pneumoniae, 10 strains, read-out: Geometric mean of MIC
Protocol: (§1) Minimum inhibitory concentrations (MIC) of BB-S 651, BB-S 669 and BB-S 676 were determined by serial two-fold agar dilution method using Steers' apparatus on Mueller-Hinton agar plate against 15 test organisms for primary screening as shown in Table 1.

[2] = system: S. pyogenes; experiment: In vitro activity, MIC of strain group (Table 2); format: cell-based; settings: Streptococcus pyogenes; Gp-II S. pyogenes, 10 strains; read-out: Geometric mean of MIC
Protocol: as §1

[3] = system: S. pyogenes A20201; experiment: In vivo efficacy, experimental infection in mice; settings: Streptococcus pyogenes, A20201, in Mus musculus, im, 120 h, read-out: PD50 (median protective dose)
Protocol: (§2) The mice were treated with test compound by im route immediately after the bacterial challenge.

[4] = system: K. pneumoniae A9977; experiment: In vivo efficacy, experimental infection in mice; settings: Klebsiella pneumoniae, A9977, in Mus musculus, im, 120 h, read-out: PD50 (median protective dose)
Protocol: as §2

[5] = system: E. cloacae; experiment: In vitro activity, MIC of strain group (Table 2); format: cell-based; settings: Enterobacter cloacae; Gn-II E. cloacae, 7 strains; read-out: Geometric mean of MIC
[6] = system: S. marcescens A20019; experiment: MIC, serial two-fold agar dilution (Table 1); format: cell-based; settings: Serratia marcescens, Mueller-Hinton agar
Protocol: as §1

[7] = system: E. cloacae A9656; experiment: MIC, serial two-fold agar dilution (Table 1); format: cell-based; settings: Enterobacter cloacae, Mueller-Hinton agar
Protocol: as §1

[8] = system: Ps. aeruginosa A15150; experiment: MIC, serial two-fold agar dilution (Table 1); format: cell-based; settings: Pseudomonas aeruginosa, Mueller-Hinton agar
Protocol: as §1

[9] = system: S. aureus 209P A9497; experiment: MIC, serial two-fold agar dilution (Table 1); format: cell-based; settings: Staphylococcus aureus; S. aureus 209P A9497; Mueller-Hinton agar; read-out: MIC
Protocol: as §1

[10] = system: E. coli A15164; experiment: MIC, serial two-fold agar dilution (Table 1); format: cell-based; settings: Escherichia coli; E. coli A15164, cephalothin-resistant; Mueller-Hinton agar
Protocol: as §1

[11] = system: S. aureus #193; experiment: MIC, serial two-fold agar dilution (Table 1); format: cell-based; settings: Staphylococcus aureus; S. aureus #193, penicillinase-producing; Mueller-Hinton agar; read-out: MIC
Protocol: as §1

[12] = system: Ps. aeruginosa A9843; experiment: MIC, serial two-fold agar dilution (Table 1); format: cell-based; settings: Pseudomonas aeruginosa, Mueller-Hinton agar
Protocol: as §1

[13] = system: Ps. aeruginosa A20718; experiment: MIC, serial two-fold agar dilution (Table 1); format: cell-based; settings: Pseudomonas aeruginosa, Mueller-Hinton agar
Protocol: as §1

[14] = system: E. coli A9660; experiment: MIC, serial two-fold agar dilution (Table 1); format: cell-based; settings: Escherichia coli; E. coli A9660, cephalothin-sensitive; Mueller-Hinton agar
Protocol: as §1

[15] = system: E. coli A15148; experiment: MIC, serial two-fold agar dilution (Table 1); format: cell-based; settings: Escherichia coli; E. coli A15148, cephalothin-resistant; Mueller-Hinton agar
Protocol: as §1

[16] = system: Ps. aeruginosa A20717; experiment: MIC, serial two-fold agar dilution (Table 1); format: cell-based; settings: Pseudomonas aeruginosa, Mueller-Hinton agar
Protocol: as §1

[17] = system: S. aureus Smith A9537; experiment: MIC, serial two-fold agar dilution (Table 1); format: cell-based; settings: Staphylococcus aureus, SMITHA9537, Mueller-Hinton agar
Protocol: as §1

[18] = system: Ps. aeruginosa A20229; experiment: MIC, serial two-fold agar dilution (Table 1); format: cell-based; settings: Pseudomonas aeruginosa, Mueller-Hinton agar
Protocol: as §1

[19] = system: E. coli Juhl A15119; experiment: MIC, serial two-fold agar dilution (Table 1); format: cell-based; settings: Escherichia coli, JUHLA15119; E. coli Juhl A15119, cephalothin-sensitive; Mueller-Hinton agar
Protocol: as §1

[20] = system: S. aureus BX-1633-2 A9606; experiment: MIC, serial two-fold agar dilution (Table 1); format: cell-based; settings: Staphylococcus aureus, BX16332A9606; S. aureus BX-1633-2 A9606, penicillinase-producing; Mueller-Hinton agar; read-out: MIC
Protocol: as §1

In the case of `CN(C)Cc1ccc[n+](CC2=C(C(=O)[O-])N3C(=O)C(NC(=O)[C@H](NC(=O)c4cnc5cccnc5c4O)c4ccc(O)cc4)C3SC2)c1` (stereo partly drawn) [BB-S 651, 7-[D-α-(4-Hydroxy-1,5-naphthyridine-3-carboxamido)-α-(4-hydroxyphenyl)acetamido]-3-(3-N,N-dimethylaminomethylpyridinium)methyl-3-cephem-4-carboxylate Hydrochloride], the MIC [1] is reported as 18 µg/mL, the MIC [2] is reported as 0.4 µg/mL and the ED50 [3] is reported as 1.1 mg/kg. It also gave an ED50 [4] of 7.4 mg/kg, an MIC [5] of over 100 µg/mL and an MIC [6] of 50 µg/mL. For the same compound, the MIC [7] was 12.5 µg/mL, the MIC [8] was 0.8 µg/mL and the MIC [9] was 0.8 µg/mL. For the same compound, the MIC [10] was 25 µg/mL, the MIC [11] was 6.3 µg/mL and the MIC [12] was 1.6 µg/mL. The MIC [13] was 0.8 µg/mL, the MIC [14] was 1.6 µg/mL and the MIC [15] was 3.1 µg/mL. The MIC [16] was 1.6 µg/mL, the MIC [17] was 3.1 µg/mL and the MIC [18] was 0.8 µg/mL. For the same compound, the MIC [19] was 6.3 µg/mL and the MIC [20] was 6.3 µg/mL.
`CCN1CCN(C(=O)N[C@@H](C(=O)N[C@@H]2C(=O)N3C(C(=O)O)=C(CSc4nnnn4C)CS[C@H]23)c2ccc(O)cc2)C(=O)C1=O` [Cefoperazone, reference compound] was tested, and the MIC [1] was 0.9 µg/mL, the MIC [2] was 0.2 µg/mL and the ED50 [3] was 2.5 mg/kg. It also gave an ED50 [4] of 0.6 mg/kg.
